US12139487B2, “Compounds and uses thereof” (Foghorn Therapeutics Inc., priority 2022, dated 2024)

Key:
[1] = system: BRM-dependent transcription (BRG1 mutant lung cancer cell line A549); experiment: BRM-dependent transcription, MMTV luciferase reporter in BRG1 mutant A549 cells; type: cell-based; conditions: Table 11; for IC50: A549-MMTV luciferase reporter, dexamethasone induced, 6 hours; for Ratio (MDA-MMTV IC50 (μM) divided by A549-MMTV IC50 (μM)): MMTV luciferase reporter cell lines, selectivity BRG1/BRM
Procedure: The potential inhibitory effects of compounds on BRG1 and BRM dependent transcription was study by testing the activity of against the BRG1 mutant lung cancer cell line A549 and a MDA cell line with BRM removed by CRISPR. Both cell lines were genetically engineered with a BRG1 or BRM-dependent mouse mammary tumor virus luciferase reporter. Luciferase transcription was induced by dexamethasone in the presence of compound at different concentrations and luminescence was measured using a plate reader 6 hours after stimulation.

BRM = target: T1, BRM (Homo sapiens, UniProt P51531); experiment: ATPase catalytic activity assay (ADP-Glo), BRM; type: biochemical; conditions: ATPase assay, selectivity BRG1/BRM, Table 10
T1 construct: made in house; host or cells: High Five insect cells
T1 sequence (P51531 whole entry): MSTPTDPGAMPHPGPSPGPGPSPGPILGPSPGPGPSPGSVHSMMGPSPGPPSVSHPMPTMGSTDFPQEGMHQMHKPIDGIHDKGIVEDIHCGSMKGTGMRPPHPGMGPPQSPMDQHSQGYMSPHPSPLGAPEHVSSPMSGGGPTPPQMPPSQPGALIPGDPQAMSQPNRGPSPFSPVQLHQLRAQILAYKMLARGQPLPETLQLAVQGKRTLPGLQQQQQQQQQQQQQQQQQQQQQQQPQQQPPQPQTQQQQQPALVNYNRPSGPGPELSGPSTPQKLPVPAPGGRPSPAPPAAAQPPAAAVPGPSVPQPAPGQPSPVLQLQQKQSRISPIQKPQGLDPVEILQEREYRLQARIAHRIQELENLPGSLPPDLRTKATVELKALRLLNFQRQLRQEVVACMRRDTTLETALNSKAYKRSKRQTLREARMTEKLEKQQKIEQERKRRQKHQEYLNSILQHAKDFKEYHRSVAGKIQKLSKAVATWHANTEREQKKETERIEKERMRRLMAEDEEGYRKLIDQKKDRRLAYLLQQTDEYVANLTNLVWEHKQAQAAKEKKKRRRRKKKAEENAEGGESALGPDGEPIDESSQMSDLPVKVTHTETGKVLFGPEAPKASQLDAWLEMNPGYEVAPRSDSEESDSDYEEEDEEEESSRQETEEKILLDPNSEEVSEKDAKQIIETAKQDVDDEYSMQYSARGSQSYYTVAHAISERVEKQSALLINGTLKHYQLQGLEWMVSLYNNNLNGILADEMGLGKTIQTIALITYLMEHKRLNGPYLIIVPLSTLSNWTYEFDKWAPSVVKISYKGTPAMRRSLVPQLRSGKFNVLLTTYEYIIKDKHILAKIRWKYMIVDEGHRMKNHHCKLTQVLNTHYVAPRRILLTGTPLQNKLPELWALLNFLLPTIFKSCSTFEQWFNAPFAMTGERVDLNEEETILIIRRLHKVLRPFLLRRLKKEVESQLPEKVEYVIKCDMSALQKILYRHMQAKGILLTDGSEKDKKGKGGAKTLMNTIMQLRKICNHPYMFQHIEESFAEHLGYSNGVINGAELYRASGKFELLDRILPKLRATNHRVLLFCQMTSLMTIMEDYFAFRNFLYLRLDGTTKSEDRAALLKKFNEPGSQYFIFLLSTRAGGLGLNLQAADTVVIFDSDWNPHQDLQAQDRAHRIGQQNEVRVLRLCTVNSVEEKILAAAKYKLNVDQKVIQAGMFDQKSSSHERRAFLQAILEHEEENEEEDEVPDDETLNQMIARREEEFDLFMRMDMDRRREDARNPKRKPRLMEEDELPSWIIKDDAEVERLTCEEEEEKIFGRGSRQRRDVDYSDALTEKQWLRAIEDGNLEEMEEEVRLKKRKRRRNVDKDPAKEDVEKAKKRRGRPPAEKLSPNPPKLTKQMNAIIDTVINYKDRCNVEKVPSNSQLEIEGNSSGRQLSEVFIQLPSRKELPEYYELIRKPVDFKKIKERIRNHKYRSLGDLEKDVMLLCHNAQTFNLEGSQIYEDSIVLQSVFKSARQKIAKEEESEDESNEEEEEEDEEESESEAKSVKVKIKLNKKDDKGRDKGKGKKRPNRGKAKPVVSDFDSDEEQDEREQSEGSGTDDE
Procedure: The ATPase catalytic activity of BRM or BRG-1 was measured by an in vitro biochemical assay using ADP-Glo™ (Promega, V9102). The ADP-Glo™ kinase assay is performed in two steps once the reaction is complete. The first step is to deplete any unconsumed ATP in the reaction. The second step is to convert the reaction product ADP to ATP, which will be utilized by the luciferase to generate luminesce and be detected by a luminescence reader, such as Envision.
The assay reaction mixture […] contains 30 nM of BRM or BRG-1, 20 nM salmon sperm DNA (from Invitrogen, UltraPure™ Salmon Sperm DNA Solution, cat #15632011), and 400 μM of ATP in the ATPase assay buffer, which comprises of 20 mM Tris, pH 8, 20 mM MgCl2, 50 mM NaCl, 0.1% Tween-20, and 1 mM fresh DTT (Pierce™ DTT (Dithiothreitol), cat #20290). The reaction is initiated by the addition of the 2.5 μL ATPase solution to 2.5 μL ATP/DNA solution on low volume white Proxiplate-384 plus plate (PerkinElmer, cat #6008280) and incubates at room temperature for 1 hour. Then, following addition of 5 μL of ADP-Glo™ Reagent provided in the kit, the reaction incubates at room temperature for 40 minutes. Then, 10 μL of Kinase Detection Reagent provided in the kit is added to convert ADP to ATP, and the reaction incubates at room temperature for 60 minutes. Finally, luminescence measurement is collected with a plate-reading luminometer, such as Envision.

IC50 [1] [µM]	Ratio (MDA-MMTV IC50 (μM) divided by A549-MMTV IC50 (μM)) [1]	IC50 ([1]; Homo sapiens, A549, 6 h) [µM]	Ratio (BRG1 IC50 (μM) divided by BRM IC50 (μM)) (BRM)	SMILES
0.0042	25.28	–	–	CCOc1nc(C(C)(F)F)ccc1-c1ccc2cnc(CNC(=O)c3cc(F)c4c(c3)S(=O)(=O)[C@@H](F)COC4)cc2n1 [Compound 468]
–	29.73	0.0188	–	CCOc1cccc(-c2ccc3cnc(CNC(=O)c4cc(Cl)c5c(c4)S(=O)(=O)[C@@H](F)CCO5)cc3n2)n1 [Compound 359]
–	29.71	0.0135	–	[2H]C([2H])([2H])C([2H])([2H])Oc1nc(C(F)F)ccc1-c1ccc2cnc(CNC(=O)c3cc(C(F)F)c4c(c3)S(=O)(=O)[C@@H](F)COC4)cc2n1 [Compound 446]
0.0016	21.18	–	–	C[C@@H]1CCN1c1cnc2c(-c3ccc4cnc(CNC(=O)c5cc(F)c6c(c5)S(=O)(=O)[C@@H](F)COC6)cc4n3)cccc2c1 [Compound 496]
–	28.85	0.0204	–	O=C(NCc1cc2nc(-c3cncc(OC(F)F)n3)ccc2cn1)c1cc(Cl)c2c(c1)S(=O)(=O)[C@@H](F)COC2 [Compound 452]
–	30.81	0.0201	–	O=C(NCc1cc2nc(-c3cccc(C4CC4)n3)ccc2cn1)c1cc(Cl)c2c(c1)S(=O)(=O)[C@@H](F)CCO2 [Compound 337]
0.0226	28.12	–	–	CCOc1nc([C@H](F)CF)ccc1-c1ccc2cnc(CNC(=O)c3cc(Cl)c4c(c3)S(=O)(=O)[C@@H](F)COC4)cc2n1 [Compound 519]
–	43.63	0.0111	–	[2H]C([2H])([2H])C([2H])([2H])Oc1ccc(-c2ccc3cnc(CNC(=O)c4cc(F)c5c(c4)S(=O)(=O)[C@@]([2H])(F)C([2H])([2H])C([2H])([2H])O5)cc3n2)nc1C1CC1(F)F (stereo partly drawn) [Compound 378]
–	24.22	0.0047	–	O=C(NCc1cc2nc(-c3ccc([C@H](F)CF)nc3OC(F)F)ccc2cn1)c1cc(F)c2c(c1)S(=O)(=O)[C@@H](F)CCO2 [Compound 392]
–	47.75	0.0251	–	O=C(NCc1cc2nc(-c3ccc(OC(F)F)c(C4CC4)n3)ccc2cn1)c1cc(Br)c2c(c1)S(=O)(=O)[C@@H](F)CCO2 [Compound 400]
–	26.53	0.0079	–	O=C(NCc1cc2nc(-c3ccc(C(F)F)nc3OCC3CC3)ccc2cn1)c1cc(F)c2c(c1)S(=O)(=O)[C@@H](F)COC2 [Compound 488]
–	37.60	0.019	–	O=C(NCc1cc2nc(-c3ccc(OC(F)F)c(C4CC4(F)F)n3)ccc2cn1)c1cc(Br)c2c(c1)S(=O)(=O)[C@@H](F)CCO2 (stereo partly drawn) [Compound 448]
–	21.86	0.0079	–	O=C(NCc1cc2nc(-c3ccc(C(F)F)c(C4CC4)n3)ccc2cn1)c1cc(Cl)c2c(c1)S(=O)(=O)[C@@H](F)CCO2 [Compound 371]
–	21.10	0.0119	–	COCCOc1cnc2c(c1)CCCN2c1ccc2cnc(CNC(=O)c3cc(Cl)c4c(c3)S(=O)(=O)[C@@H](F)COC4)cc2n1 [Compound 412]
–	23.20	0.0244	–	COCc1ccc(-c2ccc3cnc(CNC(=O)c4cc(Cl)c5c(c4)S(=O)(=O)[C@@H](F)COC5)cc3n2)nc1C1CC1 [Compound 422]
–	24.27	0.0086	–	O=C(NCc1cc2nc(-c3ccc([C@H](F)CF)c(C4CC4)n3)ccc2cn1)c1cc(F)c2c(c1)S(=O)(=O)[C@@H](F)CCO2 [Compound 411]
–	29.68	0.0214	–	[2H]C([2H])([2H])Oc1ccc(-c2ccc3cnc(CNC(=O)c4cc(Br)c5c(c4)S(=O)(=O)[C@@H](F)COC5)cc3n2)nc1C1CC1 [Compound 522]
–	–	–	13.06	C[C@@H]1CN(c2cccc(-c3ccc4cnc(CNC(=O)c5cc(F)c6c(c5)S(=O)(=O)[C@@H](F)CCO6)cc4n3)n2)C[C@H](C)O1 [Compound 325]
–	26.43	0.0073	–	COc1nc(OC(F)F)ccc1-c1ccc2cnc(CNC(=O)c3cc(F)c4c(c3)S(=O)(=O)[C@@H](F)CCO4)cc2n1 [Compound 388]

IC50 [1] [µM]	Ratio (MDA-MMTV IC50 (μM) divided by A549-MMTV IC50 (μM)) [1]	IC50 ([1]; Homo sapiens, A549, 6 h) [µM]	Ratio (BRG1 IC50 (μM) divided by BRM IC50 (μM)) (BRM)	SMILES
–	45.81	0.0104	–	[2H]C([2H])([2H])Oc1ccc(-c2ccc3cnc(CNC(=O)c4cc(C(F)F)c5c(c4)S(=O)(=O)[C@@H](F)COC5)cc3n2)nc1C1CC1(F)F (stereo partly drawn) [Compound 455]
0.0167	23.82	–	–	CCOc1nc([C@@H](F)CF)ccc1-c1ccc2cnc(CNC(=O)c3cc(C(F)F)c4c(c3)S(=O)(=O)[C@@H](F)COC4)cc2n1 [Compound 515]
–	37.87	0.0074	–	O=C(NCc1cc2nc(-c3ccc(OC(F)F)c([C@@H]4CC4(F)F)n3)ccc2cn1)c1cc(Cl)c2c(c1)S(=O)(=O)[C@@H](F)COC2 [Compound 449]
–	22.11	0.0138	–	O=C(NCc1cc2nc(-c3ccc(OC(F)F)c([C@H]4CC4(F)F)n3)ccc2cn1)c1cc(Cl)c2c(c1)S(=O)(=O)[C@@H](F)COC2 [Compound 447]
–	25.72	0.0102	–	COCCOc1cnc2c(c1)OCCN2c1ccc2cnc(CNC(=O)c3cc(Br)c4c(c3)S(=O)(=O)[C@@H](F)COC4)cc2n1 [Compound 426]
–	36.69	0.0065	–	CCOc1nc([C@H](C)F)ccc1-c1ccc2cnc(CNC(=O)c3cc(F)c4c(c3)S(=O)(=O)[C@@H](F)CCO4)cc2n1 [Compound 375]
–	49.42	0.012	–	[2H]C([2H])([2H])C([2H])([2H])Oc1nc([C@H](F)CF)ccc1-c1ccc2cnc(CNC(=O)c3cc(Br)c4c(c3)S(=O)(=O)[C@@H](F)COC4)cc2n1 [Compound 485]
–	23.16	0.0149	–	O=C(NCc1cc2nc(-c3cnc(OC(F)F)c(C4CC4)n3)ccc2cn1)c1cc(F)c2c(c1)S(=O)(=O)[C@@H](F)CCO2 [Compound 373]
–	23.22	0.026	–	O=C(NCc1cc2nc(-n3cc(F)c(OC4CC4)n3)ccc2cn1)c1cc(F)c2c(c1)S(=O)(=O)[C@@H](F)CCO2 [Compound 386]
–	21.45	0.0224	–	O=C(NCc1cc2nc(-c3ccc([C@@H](F)C(F)F)c(C4CC4)n3)ccc2cn1)c1cc(C(F)F)c2c(c1)S(=O)(=O)[C@@H](F)COC2 [Compound 476]
–	23.62	0.008	–	[2H]C([2H])([2H])C([2H])([2H])Oc1nc([C@H](C)F)ccc1-c1ccc2cnc(CNC(=O)c3cc(F)c4c(c3)S(=O)(=O)[C@@H](F)CCO4)cc2n1 [Compound 421]
–	24.09	0.0166	–	O=C(NCc1cc2nc(-c3ccc([C@H](F)C(F)F)c(C4CC4)n3)ccc2cn1)c1cc(Br)c2c(c1)S(=O)(=O)[C@@H](F)COC2 [Compound 492]
–	30.79	0.0139	–	COc1nc(C(F)(F)F)ccc1-c1ccc2cnc(CNC(=O)c3cc(Cl)c4c(c3)S(=O)(=O)[C@@H](F)CCO4)cc2n1 [Compound 348]
–	23.26	0.01	–	COCCOc1nn(-c2ccc3cnc(CNC(=O)c4cc(Cl)c5c(c4)S(=O)(=O)[C@@H](F)COC5)cc3n2)cc1F [Compound 512]
0.0097	40.89	–	–	CCOc1nc([C@@H](F)CF)ccc1-c1ccc2cnc(CNC(=O)c3cc(Br)c4c(c3)S(=O)(=O)[C@@H](F)COC4)cc2n1 [Compound 456]
–	25.21	0.012	–	O=C(NCc1cc2nc(-c3ccc([C@@H](F)C(F)F)c(C4CC4)n3)ccc2cn1)c1cc(Cl)c2c(c1)S(=O)(=O)[C@@H](F)COC2 [Compound 482]
–	25.07	0.02	–	C[C@@H](CF)c1ccc2c(n1)N(c1ccc3cnc(CNC(=O)c4cc(F)c5c(c4)S(=O)(=O)[C@@H](F)CCO5)cc3n1)CCO2 [Compound 351]
–	–	–	9.92	C[C@@H]1CN(c2cccc(-c3ccc4cnc(CNC(=O)c5cc(F)c6c(c5)S(=O)(=O)[C@@H](F)CCO6)cc4n3)n2)C[C@H](C)O1 [Compound 14]
